Consider two compounds from patent publication US12298297B2, “Visual cell sorting” (University of Washington, priority 2020, dated 2025).

One assay concerns hTERT RPE-1. Nature of the assay: Nuclear shape factor imaging of paclitaxel-treated cells (nuclear lobulation). The conditions noted are these: 0.25 nM paclitaxel, 24 hours, RPE-1 NLS-Dendra2×3 cells. The class given is cell-based, human. Here is the method:
FIGS. 4A-4F. Visual Cell Sorting to dissect heterogeneous nuclear morphology following paclitaxel treatment. (4A) RPE-1 NLS-Dendra2×3 cells were treated for 24 hours with 0.25 nM paclitaxel or DMSO and imaged. The shape factor, which measures the degree of an object's circularity, was computed for each nucleus. One normal nucleus with a shape factor near one and one lobulated nucleus with a low shape factor are shown. The computationally determined boundaries of each nucleus are shown in blue; scale bar=10 (4B) Shape factor density plots for vehicle (DMSO) and 0.25 nM paclitaxel-treated RPE-1 cells (n≥3,914 cells per treatment). Dashed line, cutoff for lobulated nuclei (shape factor <0.65). […]
To test whether Visual Cell Sorting enables transcriptomics on cells with distinct image-based phenotypes, single cell RNA sequencing was performed on cells undergoing divergent morphologic responses to paclitaxel. […] Paclitaxel treated cells were then analyzed it was observed that 30% of paclitaxel treated cells had lobulated nuclei, defined by shape factor of less than 0.65 (FIG. 4B).
RPE-1 NLS-Dendra2×3/H2B-miRFP/NES-mBeRFP Clone 3 cells were plated at 50,000 cells per well in a 6-well plate. […] After 30 hours of treatment, cells were placed on the microscope and imaged, analyzed, and activated across 2,204 sites (˜75% coverage, avoided well edges) in 2 wells. […]

The subject of another assay is U-2 OS H3-Dendra2 cells. Nature of the assay: Nucleus-to-cytoplasm (N:C) miRFP ratio of individually expressed NLS variants fused to CMPK-miRFP reporter. It counts as cell-based, human. Here is the method:
FIGS. 3A-3D. Visual Cell Sorting-derived variant scores accurately predict NLS function. (3A) Nine NLS variants were individually expressed in the CMPK-miRFP reporter in U-2 OS H3-Dendra2 cells. The median nucleus to cytoplasm (N:C) ratio of cells expressing each variant was measured by microscope and compared to its localization score derived by Visual Cell Sorting. n≥141 cells per variant per replicate. Bars, mean across at least three separate replicates. (3B) SV40 NLS variants that appeared to enhance nuclear localization were individually tested both alone and in combination. NLS variants with up to three amino acid changes were expressed in U-2 OS H3-Dendra2 cells and imaged; the median N:C ratio was quantified across cells in the same well. n≥527 cells per variant per replicate. […]
A library was based on the SV40 NLS, a 7-residue sequence containing a lysine and arginine-rich region (K/R motif) that was the first NLS to be discovered. […] The degree of nuclear localization was calculated using a nucleus-to-cytoplasm miRFP intensity ratio (N:C ratio; FIG. 9A). […]
Analysis of Metamorph-calculated nucleus and cytoplasm mean intensity values was done using Python (v3.6.5). […] Cells with no miRFP expression were removed with a gate that was determined by examination of the histogram of the mean miRFP intensity values for cells in each well. […]

In the case of `CC(=O)O[C@H]1C(=O)[C@@]2(C)[C@H]([C@H](OC(=O)c3ccccc3)[C@]3(O)C[C@H](OC(=O)[C@H](O)[C@@H](NC(=O)c4ccccc4)c4ccccc4)C(C)=C1C3(C)C)[C@]1(OC(C)=O)CO[C@@H]1C[C@@H]2O` [paclitaxel], in the assay with hTERT RPE-1, the “cells with lobulated nuclei, defined by shape factor of less than 0.65” value was found to be 30%.
For “EPPRKKRKIGI [superNLS, optimized SV40 NLS with three missense variants, fused to the CMPK-miRFP reporter]”, the “increase in nuclear localization compared to the wild-type SV40 NLS (median N:C ratio)” value in the assay on U-2 OS H3-Dendra2 cells amounted to 2.3 fold.
